In article PMC11756644 (ACS chemical biology, 2015):

Target: T1, tPAD1 (Saccharomyces cerevisiae, UniProt P33751)
T1 sequence (P33751 55-242): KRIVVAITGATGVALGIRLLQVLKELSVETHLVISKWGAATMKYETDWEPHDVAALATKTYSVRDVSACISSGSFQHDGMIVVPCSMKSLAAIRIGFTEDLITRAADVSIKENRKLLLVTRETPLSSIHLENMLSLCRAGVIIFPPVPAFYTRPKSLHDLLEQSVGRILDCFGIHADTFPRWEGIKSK
Assay: UV-visible spectrum of purified protein
Format: binding
Settings: co-purified from E. coli; oxidized FMN

SMILES: Cc1cc2nc3c(=O)[nH]c(=O)nc-3n(C[C@H](O)[C@H](O)[C@H](O)COP(=O)(O)O)c2cc1C [FMN]
- UV-visible spectrum of purified protein; LC-ESI-MS of released flavin: The presence of FMN was confirmed by LC-ESI-MS. FMN was released from tPAD1 by precipitation
